Columns and labels:
Format in all cases: in vivo
[1] = system: male Sprague-Dawley rats; assay: Osteoarthritis Pain Test (MIA, mechanical hyperalgesia); settings: rat, oral once daily, 30 mg/kg
Protocol: Osteoarthritis pain was induced in non-fasted male Sprague-Dawley rats weighing 150-250 g by injecting 2 mg of monosodium iodoacetate (MIA) into the left knee joint. Mechanical hyperalgesia was measured using a digital Randall-Selitto device (dRS; IITC Life Sciences©; Woodland Hills, Calif.). Animals were allowed to acclimate to the testing room for a minimum of 15 minutes before testing. Animals were placed in a restraint sling that suspended the animal, leaving the hind limbs available for testing. The stimulus was applied to the knee joint by a blunt tip and pressure was applied gradually over approximately 10 seconds. Joint compression threshold values were recorded at the first observed nocifensive behavior (vocalization, struggle, or withdrawal). One reading per joint was taken at each time point, and a maximum stimulus cutoff of 500 grams was used to prevent injury to the animal. Mechanical hyperalgesia was assessed prior to MIA injection, and again 14 days later. After 14 days, test or control articles were administered once daily for 7 days with mechanical hyperalgesia assessed prior to dosing, 1, 2, and 4 hours post-dosing on days 0, 3, and 6. Test compounds were administered orally at concentrations of 3, 10, 30 or 100 mg/kg and celecoxib was administered orally at a concentration of 30 mg/kg. The control group received the vehicle (sterile water). After day 0, groups receiving the 100 mg/kg dose were reduced to a dose of 3 mg/kg. In Table 5, ‘A’ designates ≥375 grams of joint compression, ‘B’ designates ≥325 and <375 grams of joint compression, and ‘C’ designates <325 grams of joint compression.
The results provided in Table 5 are for oral administration in rats.

[2] = system: male Sprague-Dawley rats; assay: UVB Inflammatory Pain Test (thermal hyperalgesia); settings: rat, oral, 30 mg/kg
Protocol: UVB irradiation to the surface of the hind paw was used to induce cutaneous inflammatory pain in non-fasted male Sprague-Dawley rats weighing 175-300 g. On Day −3, animals were restrained and the plantar surface of the left hind paw was exposed to 350 mJoules/cm^2 of UVB irradiation using a narrow band UVB light source (Daavlin®, Bryan, Ohio). Following UVB irradiation, animals were returned to their home cage. Thermal hyperalgesia was assessed prior to dosing and approximately 1, 2, and 4 hours after dosing on Day 0 using a radiant heat plantar test apparatus (IITC Life Sciences©; Woodland Hills, Calif.). Animals were placed in individual acrylic chambers on a glass platform warmed to 30±2° C. and allowed to acclimate to their surroundings for a minimum of 15 minutes before testing. The stimulus was presented to the plantar surface and the timer was activated. The stimulus intensity was set such that pre-injury paw withdrawal latencies were approximately 12-18 seconds. Paw withdrawal latency values were recorded at the first observed nocifensive behavior (paw withdrawal, flinching, biting and/or licking). Three paw withdrawal latencies were measured for each hind paw per time point. The mean of the 3 values was taken as the paw withdrawal latency for that time point. A maximum cutoff latency of 30 seconds was used to prevent injury to the animal. The mean and standard error of the mean (SEM) were determined for each paw for each treatment group at each time point. Test compounds were administered orally at concentrations of 3, 10, 30 or 100 mg/kg; celecoxib was administered orally at a concentration of 30 mg/kg; and acetaminophen was administered orally at a concentration of 300 mg/kg. The control group received the vehicle (sterile water). In Table 4, ‘A’ designates >8 seconds of paw withdrawal latency, ‘B’ designates >6 and <8 seconds of paw withdrawal latency, and ‘C’ designates <6 seconds of paw withdrawal latency.
The results provided in Table 4 are for oral administration in rats. […] Furthermore, while acetaminophen was dosed at 300 mg/kg, compounds of Formulae (Ie), (Ih) and (Ik), or a pharmaceutically acceptable salt of any of the foregoing, were dosed at 3 mg/kg, 10 mg/kg and 100 mg/kg.

[3] = system: male Sprague-Dawley rats; assay: Formalin Paw Test, rat, oral; settings: 30 mg/kg; for Early Phase, seconds of paw licking: early/acute phase (0-10 minutes); for Late Phase, seconds of paw licking: late/tonic phase (10-35 minutes)
Protocol: One test compound or the vehicle was administered to each rat or mouse in each test group (8 rats or mice per group). Non-fasted male Sprague-Dawley rats weighing 200-225 g or non-fasted male ICR mice weighing 23±3 g were used. […] Responses were measured every 5 minutes after the formalin injection for 35 minutes. The results in Table 2 are for oral administration in rat and the results in Table 3 are for intraperitoneal administration in mouse. In Tables 2 and 3, 'A' designates <70 seconds of paw licking, 'B' designates >70 and <165 seconds of paw licking, and 'C' designates >165 seconds of paw licking.

Compound	Early Phase, seconds of paw licking [3]	Late Phase, seconds of paw licking [3]	other results
Cc1ccc(-c2cc(C(F)(F)F)nn2-c2ccc(S(N)(=O)=O)cc2)cc1 [Celecoxib, reference compound]	–	–	joint compression threshold, Day 0, 1 h ([1]; Day 0, 1 h post-dosing): B (≥325 and <375 grams of joint compression); joint compression threshold, Day 0, 2 h ([1]; Day 0, 2 h post-dosing): A (≥375 grams of joint compression); joint compression threshold, Day 0, 4 h ([1]; Day 0, 4 h post-dosing): B (≥325 and <375 grams of joint compression); joint compression threshold, Day 3, 1 h ([1]; Day 3, 1 h post-dosing): C (<325 grams of joint compression); joint compression threshold, Day 3, 2 h ([1]; Day 3, 2 h post-dosing): A (≥375 grams of joint compression); joint compression threshold, Day 3, 4 h ([1]; Day 3, 4 h post-dosing): A (≥375 grams of joint compression); joint compression threshold, Day 6, 1 h ([1]; Day 6, 1 h post-dosing): B (≥325 and <375 grams of joint compression); joint compression threshold, Day 6, 2 h ([1]; Day 6, 2 h post-dosing): A (≥375 grams of joint compression); joint compression threshold, Day 6, 4 h ([1]; Day 6, 4 h post-dosing): A (≥375 grams of joint compression); paw withdrawal latency, 1 h ([2]; 1 h after dosing): A (>8 seconds of paw withdrawal latency); paw withdrawal latency, 2 h ([2]; 2 h after dosing): A (>8 seconds of paw withdrawal latency); paw withdrawal latency, 4 h ([2]; 4 h after dosing): A (>8 seconds of paw withdrawal latency)
Cl.NC12CC(c3ccc(C(F)(F)F)cc3)(C1)C2 [Compound 3, 3-(4-(trifluoromethyl)phenyl)bicyclo[1.1.1]pentan-1-amine hydrochloride]	A (<70 seconds of paw licking)	A (<70 seconds of paw licking)	–
COc1ccc(C23CC(N)(C2)C3)cc1.Cl [Compound 4, 3-(4-Methoxyphenyl)bicyclo[1.1.1]pentan-1-amine hydrochloride]	A (<70 seconds of paw licking)	A (<70 seconds of paw licking)	–
Cl.NC12CC(c3cccc(C(F)(F)F)c3)(C1)C2 [Compound 5]	A (<70 seconds of paw licking)	B (>70 and <165 seconds of paw licking)	–
CCNC12CC(C(F)(F)F)(C1)C2.Cl [Compound 8, N-Ethyl-3-(trifluoromethyl)bicyclo[1.1.1]pentan-1-amine hydrochloride]	A (<70 seconds of paw licking)	C (>165 seconds of paw licking)	–
Cl.OCCNC12CC(C(F)(F)F)(C1)C2 [Compound 9, 2-((3-(Trifluoromethyl)bicyclo[1.1.1]pentan-1-yl)amino)ethan-1-ol hydrochloride]	A (<70 seconds of paw licking)	C (>165 seconds of paw licking)	–
Cl.NC12CC(c3ccc(Cl)cc3)(C1)C2 [Compound 10, 3-(4-Chlorophenyl)bicyclo[1.1.1]pentan-1-amine hydrochloride]	A (<70 seconds of paw licking)	A (<70 seconds of paw licking)	–
Cl.NC12CC(c3ccnc(C(F)(F)F)n3)(C1)C2 [Compound 11, 3-(2-(Trifluoromethyl)pyrimidin-4-yl)bicyclo[1.1.1]pentan-1-amine hydrochloride]	A (<70 seconds of paw licking)	C (>165 seconds of paw licking)	–
Cl.NC12CC(c3nccc(C(F)(F)F)n3)(C1)C2 [Compound 12, 3-(4-(Trifluoromethyl)pyrimidin-2-yl)bicyclo[1.1.1]pentan-1-amine hydrochloride]	A (<70 seconds of paw licking)	C (>165 seconds of paw licking)	–
Cl.NC12CC(c3nc4cc(C(F)(F)F)ccc4s3)(C1)C2 [Compound 14, 3-(5-(trifluoromethyl)benzo[d]thiazol-2-yl)bicyclo[1.1.1]pentan-1-amine hydrochloride]	A (<70 seconds of paw licking)	C (>165 seconds of paw licking)	–
Cl.NC12CC(c3nc4cc(C(F)(F)F)ccc4o3)(C1)C2 [Compound 15, 3-(5-(Trifluoromethyl)benzo[d]oxazol-2-yl)bicyclo[1.1.1]pentan-1-amine hydrochloride]	A (<70 seconds of paw licking)	C (>165 seconds of paw licking)	–
Cl.NC12CC(c3nc4cc(Cl)ccc4o3)(C1)C2 [Compound 16, 3-(5-chlorobenzo[d]oxazol-2-yl)bicyclo[1.1.1]pentan-1-amine hydrochloride]	A (<70 seconds of paw licking)	C (>165 seconds of paw licking)	–
Cl.NC12CC(c3nc4cc(F)ccc4[nH]3)(C1)C2 [Compound 17, 3-(5-fluoro-1H-benzo[d]imidazol-2-yl)bicyclo[1.1.1]pentan-1-amine hydrochloride]	A (<70 seconds of paw licking)	C (>165 seconds of paw licking)	–
COc1cccc(C23CC(N)(C2)C3)c1.Cl [Compound 18, 3-(3-Methoxyphenyl)bicyclo[1.1.1]pentan-1-amine hydrochloride]	A (<70 seconds of paw licking)	B (>70 and <165 seconds of paw licking)	–
CC(F)(F)C12CC(N)(C1)C2.Cl [Compound 19, 3-(1,1-Difluoroethyl)bicyclo[1.1.1]pentan-1-amine hydrochloride]	A (<70 seconds of paw licking)	B (>70 and <165 seconds of paw licking)	–
CC(C)C(F)(F)C12CC(N)(C1)C2.Cl [Compound 20, 3-(1,1-Difluoro-2-methylpropyl)bicyclo[1.1.1]pentan-1-amine hydrochloride]	A (<70 seconds of paw licking)	C (>165 seconds of paw licking)	–
CC(C)=C(F)C12CC(N)(C1)C2.Cl [Compound 21, 3-(1-fluoro-2-methylprop-1-en-1-yl)bicyclo[1.1.1]pentan-1-amine hydrochloride]	A (<70 seconds of paw licking)	C (>165 seconds of paw licking)	–
Cl.NC12CC(c3ccccc3)(C1)C2 [Compound 22, 3-Phenylbicyclo[1.1.1]pentan-1-amine hydrochloride]	A (<70 seconds of paw licking)	B (>70 and <165 seconds of paw licking)	–

— patent US11242327B2, “Analgesic compounds” (RECURIUM IP HOLDINGS, LLC, priority 2017, dated 2022)
